In patent publication US12384775B2, “Pyrimid-2-yl-pyrazole compounds as IRAK inhibitors” (Rigel Pharmaceuticals, Inc., priority 2022, dated 2025):

How the values were obtained:
IRAK4 = biological target: T1, IRAK4 (Homo sapiens, UniProt Q9NWZ3); experiment: IRAK4 ADP-Glo kinase assay; format: biochemical; conditions: for IC50: n >= 3
T1 construct: purchased Signalchem I12-10G-20
T1 sequence (Q9NWZ3 1-460): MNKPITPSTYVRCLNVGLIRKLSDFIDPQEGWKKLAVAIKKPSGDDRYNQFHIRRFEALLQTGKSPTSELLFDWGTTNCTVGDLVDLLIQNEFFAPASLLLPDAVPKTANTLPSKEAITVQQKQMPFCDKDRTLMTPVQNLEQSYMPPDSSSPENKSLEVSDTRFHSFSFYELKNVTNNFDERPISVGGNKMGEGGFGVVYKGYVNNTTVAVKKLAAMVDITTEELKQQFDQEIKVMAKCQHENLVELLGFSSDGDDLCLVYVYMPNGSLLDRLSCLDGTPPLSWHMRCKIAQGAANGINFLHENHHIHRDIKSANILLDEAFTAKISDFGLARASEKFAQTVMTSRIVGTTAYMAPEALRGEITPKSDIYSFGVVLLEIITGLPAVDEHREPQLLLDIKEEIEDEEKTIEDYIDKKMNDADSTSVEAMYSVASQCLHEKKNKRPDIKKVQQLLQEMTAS
Experimental: The ADP-Glo™ reagents were thawed at ambient temperature. The Kinase Detection Reagent was prepared by mixing kinase detection buffer with the lyophilized kinase detection substrate, and set aside.
A stock volume of 5× Reaction Kinase Buffer was made with a final concentration of 100 mM MgCl2, 200 mM Tris-HCl, and 0.5 mg/ml of BSA, in distilled H2O with a final pH7.4. A 2× working stock volume of Reaction Kinase Buffer was made containing a final concentration of 100 μM DTT.
The components of IRAK4 Enzyme were thawed on ice. Diluted IRAK4 in 1× Kinase Reaction Buffer (diluted from 2× buffer) was prepared at […]. A 250 μM working stock ATP Assay Solution was prepared in 1× Kinase Reaction Buffer (diluted from 2× buffer).
The compound was diluted in DMSO from 250 µM in 4-fold series dilutions for 8 points. Then diluted 1:5 in 2× Reaction Buffer in a 96 well plate. 1.0 μl was transferred to a 384 well plate in duplicate. […] 1 μl of 1 mg/ml stock solution of MBP substrate was added NOTE: MBP can be combined with ATP mix with equal volume and then added at 2 μl/well. Final reaction volume was 5 μl. The plate was centrifuged and the reaction mixture was incubated at room temperature for 60 minutes or at 30° C. for 30 minutes.
The reaction was terminated and the remaining ATP was depleted by adding 5 μl of ADP-Glo™ Reagent. The 384-well plate was centrifuged and then the reaction mixture was incubated for another 40 minutes at ambient temperature.
10 μl of the Kinase Detection Reagent was added. The plate was centrifuged and then the reaction mixture was incubated for another 30 minutes at ambient temperature.
The 384-well reaction plate was read using the WALLAC plate reader (Luminescence 0.1s).

[1] = Plasma protein binding, equilibrium dialysis (RED), mouse; format: in vitro ADME; conditions: drug 5 μM; for recovery at 5 μM: low due to hydrolysis; for fraction unbound at 5 μM: read-out: % bound (converted)
Experimental: Brain and plasma drug binding were performed by equilibrium dialysis using the Rapid Equilibrium Dialysis (RED) device. Briefly, 300 μL of plasma or brain homogenate (1 brain/3 buffer) containing drug (5 μM) was equilibrated (4-18 h) against 500 μL of buffered saline. After incubation, the concentration of drug in plasma/brain homogenate and buffer was determined by LC-MS/MS.
Recovery is calculated by determining the total amount of drug in 50 μL of plasma and 50 μL buffer after the incubation and comparing that value to the amount of drug in 50 μL of a plasma sample that was not incubated. For the protein binding assay, drug was added to the plasma and this plasma was added to one side of the dialysis device while buffer was added to the other. After filing the plasma chamber of the equilibrium device, a 50 μL aliquot of plasma was mixed with 50 μL of buffer and then quenched with stop reagent. Drug recovery=(Drug buffer+Drug plasma)/(drug in initial plasma)

[2] = test system: TLR7-induced TNF-α production in human primary dendritic cells (DC); experiment: Gardiquimod-induced TNF-α in human monocyte-derived dendritic cells (DC); format: cell-based; conditions: Dendritic cell, gardiquimod 4 μg/ml, read-out: Cell Assays IC50, TNFα (DC, Gard)
Experimental: Human peripheral blood mononuclear cells (PBMC) (400 million) were allowed to adhere in a T-175 flask containing 15 ml RPMI media (10% FBS) for 2 hours at 37° C., 5% CO2 to capture the monocytes.
After 2 hours, the media including floating cells was carefully removed and 12 ml of fresh RPMI media (10% FBS) containing GM-CSF (100 ng/ml) and IL-4 (20 ng/ml) were added to the adherent monocytes. The monocytes were allowed to differentiate for 7 days at 37° C., 5% CO2 for 7 days, supplementing with fresh GM-CSF and IL-4 after 3 days.
The differentiated dendritic cells (DC) were harvested by centrifugation (1200 rpm/5 min). The DCs were primed at 37° C., 5% CO2 for 24 hours with 50 ng/ml IFN-7 (1000 U/ml) at 50K/well in 100 μL/well of fresh RPMI media (10% FBS) in a white clear bottom 96 well plate.
Compound was serially diluted in DMSO from 2.5 mM in 4-fold dilutions, and then diluted 1:125 in RPMI 1640 complete media with 10% FBS. The primed DCs were pre-incubated with test compound for 1 hour at 37° C., 5% CO2 by adding 100 μl of RPMI media containing 2× concentrated test compound per well (0.5% final DMSO concentration).
The DCs were stimulated with gardiquimod (10 μL per well of 20× concentrated gardiquimod solution in RPMI media to give a final concentration of 4 μg/ml) at 37° C., 5% CO2 for an additional 18 hours. […] TNF-α was quantitated by ELISA, following the kit protocol.

[3] = test system: TLR- and IL-1R-dependent cytokine production; experiment: Cell assays, average of IL-23 (THP-1), TNFα (PBMC), TNFα (DC); format: cell-based; conditions: Homo sapiens, average of the three cell assays
Description: To evaluate the effect of compound I-1 on TLR and IL-1R-dependent cytokine release, multiple cell types were isolated and stimulated in the presence of compound I-1 or Comparison-1.

SMILES	IC50 (IRAK4)	recovery at 5 μM [1]	fraction unbound at 5 μM [1]	IC50 [2]	IC50 [3]	EC50 (IRAK4; read-out: IRAK4 ADP-Glo Kinase, 8 pt EC50)
CCO[C@H]1CC[C@H](n2cc(NC(=O)c3csc(-c4cn[nH]c4)n3)c(-c3nc(F)ccc3F)n2)CC1 [Comparison-1, reference compound]	6 ± 6 nM	10%	0.022	19 nM	32 nM	
CCO[C@H]1CC[C@H](n2cc(NC(=O)c3csc(-c4cn[nH]c4)n3)c(-c3ncccn3)n2)CC1 [Compound I-1, N-(1-((1r,4r)-4-ethoxycyclohexyl)-3-(pyrimidin-2-yl)-1H-pyrazol-4-yl)-2-(1H-pyrazol-4-yl)thiazole-4-carboxamide]	7 ± 4 nM	23.6%	0.085	5 nM	5 nM	7 nM
